Measurements as given in ChEMBL document CHEMBL3044672, “N9- and N7-(Chloromethyl Phenymethyl)Chloropurine Derivatives from , '-Dichloroxylenes: Synthesis and Anticancer Activity” (2005).

Assays:
Type in all cases: functional
CCRF-CEM = assay: Cytotoxicity against Homo sapiens (human) CCRF-CEM cells after 48 hr by sulforhodamine B assay
MOLT-4 = assay: Cytotoxicity against Homo sapiens (human) MOLT4 cells after 48 hr by sulforhodamine B assay; details: MOLT-4, 48 h
CAKI-1 = assay: Cytotoxicity against Homo sapiens (human) Caki1 cells after 48 hr by sulforhodamine B assay; details: CAKI-1, 48 h
HCT-116 = assay: Cytotoxicity against Homo sapiens (human) HCT116 cells after 48 hr by sulforhodamine B assay; details: HCT-116, 48 h
M14 = assay: Cytotoxicity against Homo sapiens (human) M14 cells after 48 hr by sulforhodamine B assay; details: M14, 48 h
SK-MEL-28 = assay: Cytotoxicity against Homo sapiens (human) SK-MEL-28 cells after 48 hr by sulforhodamine B assay; details: SK-MEL-28, 48 h
[1] = Cytotoxicity against Homo sapiens (human) NCI-ADR-RES cells after 48 hr by sulforhodamine B assay
Hs-578T = assay: Cytotoxicity against Homo sapiens (human) Hs 578T cells after 48 hr by sulforhodamine B assay
HCC 2998 = assay: Cytotoxicity against Homo sapiens (human) HCC2998 cells after 48 hr by sulforhodamine B assay; details: HCC 2998, 48 h
UO-31 = assay: Cytotoxicity against Homo sapiens (human) UO31 cells after 48 hr by sulforhodamine B assay; details: UO-31, 48 h
OVCAR-5 = assay: Cytotoxicity against Homo sapiens (human) OVCAR5 cells after 48 hr by sulforhodamine B assay; details: OVCAR-5, 48 h
TK-10 = assay: Cytotoxicity against Homo sapiens (human) TK10 cells after 48 hr by sulforhodamine B assay; details: TK-10, 48 h
ACHN = assay: Cytotoxicity against Homo sapiens (human) ACHN cells after 48 hr by sulforhodamine B assay
U-251 = assay: Cytotoxicity against Homo sapiens (human) U251 cells after 48 hr by sulforhodamine B assay; details: U-251, 48 h
UACC-257 = assay: Cytotoxicity against Homo sapiens (human) UACC257 cells after 48 hr by sulforhodamine B assay; details: UACC-257, 48 h
786-0 = assay: Cytotoxicity against Homo sapiens (human) 786-0 cells after 48 hr by sulforhodamine B assay; details: 786-0, 48 h
IGROV-1 = assay: Cytotoxicity against Homo sapiens (human) IGROV1 cells after 48 hr by sulforhodamine B assay; details: IGROV-1, 48 h
A549 = assay: Cytotoxicity against Homo sapiens (human) A549 cells after 48 hr by sulforhodamine B assay; details: A549, 48 h
A498 = assay: Cytotoxicity against Homo sapiens (human) A498 cells after 48 hr by sulforhodamine B assay; details: A498, 48 h
NCI-H460 = assay: Cytotoxicity against Homo sapiens (human) NCI-H460 cells after 48 hr by sulforhodamine B assay; details: NCI-H460, 48 h
SW-620 = assay: Cytotoxicity against Homo sapiens (human) SW620 cells after 48 hr by sulforhodamine B assay; details: SW-620, 48 h
NCI-H226 = assay: Cytotoxicity against Homo sapiens (human) NCI-H226 cells after 48 hr by sulforhodamine B assay; details: NCI-H226, 48 h
DU-145 = assay: Cytotoxicity against Homo sapiens (human) DU145 cells after 48 hr by sulforhodamine B assay; details: DU-145, 48 h
NCI-H322M = assay: Cytotoxicity against Homo sapiens (human) NCI-H322M cells after 48 hr by sulforhodamine B assay
SK-MEL-2 = assay: Cytotoxicity against Homo sapiens (human) SK-MEL-2 cells after 48 hr by sulforhodamine B assay; details: SK-MEL-2, 48 h
SF-295 = assay: Cytotoxicity against Homo sapiens (human) SF295 cells after 48 hr by sulforhodamine B assay; details: SF-295, 48 h
HCT-15 = assay: Cytotoxicity against Homo sapiens (human) HCT15 cells after 48 hr by sulforhodamine B assay; details: HCT-15, 48 h
HOP-92 = assay: Cytotoxicity against Homo sapiens (human) HOP92 cells after 48 hr by sulforhodamine B assay; details: HOP-92, 48 h
OVCAR-3 = assay: Cytotoxicity against Homo sapiens (human) OVCAR3 cells after 48 hr by sulforhodamine B assay; details: OVCAR-3, 48 h
MCF7 = assay: Cytotoxicity against Homo sapiens (human) MCF7 cells assessed as cell growth at 10^-4 M after 48 hr by Alamar blue assay; details: MCF7, 48 h, read-out: Activity
T47D = assay: Cytotoxicity against Homo sapiens (human) T47D cells after 48 hr by sulforhodamine B assay
MDA-MB-435 = assay: Cytotoxicity against Homo sapiens (human) MDA-MB-435 cells after 48 hr by sulforhodamine B assay; details: MDA-MB-435, 48 h
[2] = read-out: LC50 (the source's name)

`ClCc1ccccc1Cn1cnc2nc(Cl)nc(Cl)c21` showed a GI50 (CCRF-CEM) of 0.1 µM, a TGI (CCRF-CEM) of 0.3 µM and a CC50 (CCRF-CEM; [2]) of 0.93 µM. The GI50 (MOLT-4) was 1.34 µM, the TGI (MOLT-4) was 3.23 µM and the CC50 (MOLT-4; [2]) was 7.94 µM. It also gave a GI50 (CAKI-1) of 19.5 µM, a TGI (CAKI-1) of 34.7 µM and a CC50 (CAKI-1; [2]) of 61.6 µM. It also gave a GI50 (HCT-116) of 1.86 µM, a TGI (HCT-116) of 4.07 µM and a GI50 (M14) of 1.86 µM. For the same compound, the LC50 (M14) was 6.45 µM, the TGI (M14) was 3.46 µM and the GI50 (SK-MEL-28) was 0.35 µM. The LC50 (concentration killing 50% of cells) (SK-MEL-28) was over 100 µM, the TGI (SK-MEL-28) was over 100 µM and the GI50 [1] was 2.34 µM. It also gave an LC50 (concentration killing 50% of cells) [1] of over 100 µM, a TGI [1] of 5.01 µM and a GI50 (Hs-578T) of 0.67 µM. The LC50 (Hs-578T) was over 100 µM, the TGI (Hs-578T) was 2.57 µM and the GI50 (HCC 2998) was 18.6 µM. For the same compound, the TGI (HCC 2998) was 35.5 µM, the CC50 (HCC 2998; [2]) was 66.1 µM and the GI50 (UO-31) was 1.73 µM. The GI50 (OVCAR-5) was 2.69 µM, the TGI (OVCAR-5) was 5.75 µM and the CC50 (OVCAR-5; [2]) was 28.8 µM. For the same compound, the GI50 (TK-10) was 19.5 µM, the TGI (TK-10) was 33.9 µM and the CC50 (TK-10; [2]) was 60.2 µM. The GI50 (ACHN) was 0.35 µM, the TGI (ACHN) was 1.25 µM and the CC50 (ACHN; [2]) was 3.54 µM. The GI50 (U-251) was 0.33 µM, the LC50 (concentration killing 50% of cells) (U-251) was 3.63 µM and the TGI (U-251) was 1.17 µM. For the same compound, the GI50 (UACC-257) was 1.99 µM, the LC50 (concentration killing 50% of cells) (UACC-257) was 8.7 µM and the TGI (UACC-257) was 4.16 µM. It also gave a GI50 (786-0) of 2.63 µM, an LC50 (786-0) of 30.9 µM and a TGI (786-0) of 7.07 µM. For the same compound, the GI50 (IGROV-1) was 2.88 µM, the LC50 (IGROV-1) was 9.54 µM and the TGI (IGROV-1) was 5.24 µM. It also gave a GI50 (A549) of 2.81 µM, a TGI (A549) of 5.75 µM and a CC50 (A549; [2]) of over 100 µM. For the same compound, the GI50 (A498) was 2.51 µM, the LC50 (lethal concentration, 50% cell kill) (A498) was 19.5 µM and the TGI (A498) was 5.88 µM. The GI50 (NCI-H460) was 2.39 µM, the TGI (NCI-H460) was 5.88 µM and the CC50 (NCI-H460; [2]) was over 100 µM. For the same compound, the GI50 (SW-620) was 0.26 µM, the TGI (SW-620) was 0.67 µM and the CC50 (SW-620; [2]) was 4.67 µM. The GI50 (NCI-H226) was 2.13 µM, the TGI (NCI-H226) was 6.76 µM and the CC50 (NCI-H226; [2]) was 28.2 µM. It also gave an LC50 (DU-145) of 7.24 µM, a GI50 (NCI-H322M) of 4.26 µM and a TGI (NCI-H322M) of 14.5 µM. It also gave a CC50 (NCI-H322M; [2]) of 39.8 µM, a GI50 (SK-MEL-2) of 2.75 µM and an LC50 (concentration killing 50% of cells) (SK-MEL-2) of over 100 µM. The TGI (SK-MEL-2) was 5.75 µM, the GI50 (SF-295) was 19.9 µM and the TGI (SF-295) was 35.5 µM. It also gave a CC50 (SF-295; [2]) of 61.6 µM, a GI50 (HCT-15) of 0.19 µM and a TGI (HCT-15) of 0.43 µM. For the same compound, the CC50 (HCT-15; [2]) was 0.95 µM, the GI50 (HOP-92) was 1.14 µM and the TGI (HOP-92) was 2.81 µM. It also gave a CC50 (HOP-92; [2]) of over 100 µM, a GI50 (OVCAR-3) of 14.1 µM and an LC50 (OVCAR-3) of 53.7 µM. It also gave a TGI (OVCAR-3) of 27.5 µM, a growth at 100 µM (MCF7) of 0% and a GI50 (T47D) of 0.58 µM. For the same compound, the LC50 (T47D) was over 100 µM, the TGI (T47D) was 5.24 µM and the GI50 (MDA-MB-435) was 16.6 µM. For the same compound, the LC50 (MDA-MB-435) was 58.9 µM and the TGI (MDA-MB-435) was 30.9 µM.
